Reference: ChEMBL document CHEMBL5209897, “Affinity Phenotypic Cellular Literature for EUbOPEN Chemogenomics Library wave 3” (2023)

What was measured:
[1] = biological target: T1, Serine/threonine-protein kinase PLK1 (Homo sapiens, UniProt P53350); settings: Affinity Phenotypic Cellular Source Knowledge https://doi.org/10.1158/0008-5472.CAN-09-0945
[2] = biological target: MAP kinase-activated protein kinase 2 (Homo sapiens, UniProt P49137); test: Affinity Phenotypic Cellular interaction (Cell-based TNFa assay (MesoScale Discovery; inhibition of LPS stimulated TNFa production in human U937 cells)) EUB0000056c MAPKAPK2; type: functional; set-up: mode of action Inhibitor, recommended concentration 1 uM
[3] = biological target: MAP kinase-activated protein kinase 3 (Homo sapiens, UniProt Q16644); test: Affinity Phenotypic Cellular interaction (Cell-based TNFa assay (MesoScale Discovery; inhibition of LPS stimulated TNFa production in human U937 cells)) EUB0000056c MAPKAPK3; type: functional; set-up: mode of action Inhibitor, recommended concentration 1 uM
[4] = biological target: MAP kinase-activated protein kinase 5 (Homo sapiens, UniProt Q8IW41); test: Affinity Phenotypic Cellular interaction (Cell-based TNFa assay (MesoScale Discovery; inhibition of LPS stimulated TNFa production in human U937 cells)) EUB0000056c MAPKAPK5; type: functional; set-up: mode of action Inhibitor, recommended concentration 1 uM
[5] = biological target: Bromodomain adjacent to zinc finger domain protein 2A (Homo sapiens, UniProt Q9UIF9); test: Affinity Phenotypic Cellular interaction (FRAP assay (displacement of BAZ2A/B from chromatin in SAHA-treated human U2OS cells, transfected with GFP-BAZ2A fusion construct)) EUB0000267b BAZ2A; set-up: mode of action Negative control for GSK2801, recommended concentration 1 uM
[6] = biological target: Inhibitor of nuclear factor kappa-B kinase subunit epsilon (Homo sapiens, UniProt Q14164)
[7] = biological target: Serine/threonine-protein kinase TBK1 (Homo sapiens, UniProt Q9UHD2)
[8] = biological target: Hepatocyte growth factor receptor (Homo sapiens) (UniProt P08581); test: Affinity Phenotypic Cellular interaction (Cell proliferation assay (in Hs746T cells)) EUB0000293b MET; type: functional, cell-based; set-up: recommended concentration 1 uM; settings: Affinity Phenotypic Cellular Source Knowledge https://www.sgc-ffm.uni-frankfurt.de/#!specificprobeoverview/BAY-474
[9] = biological target: Mitogen-activated protein kinase kinase kinase kinase 2 (Homo sapiens, UniProt Q12851); test: Affinity Phenotypic Cellular interaction (Western Blot (inhibition in IL-1-induced phosphorylation of MAPK14)) EUB0000238b MAP4K2; set-up: mode of action Inhibitor, recommended concentration 1 uM
Integrin alpha-L [10] = biological target: T2, Integrin alpha-L (Homo sapiens, UniProt P20701); type: functional; set-up: mode of action Negative control for BI-1950, recommended concentration 100 nM
[11] = biological target: Histone acetyltransferase p300 (Homo sapiens, UniProt Q09472); test: Affinity Phenotypic Cellular interaction (Inhibition of H3K27Ac (DU-145 cells)) EUB0000326a EP300
CREB-binding protein = CREB-binding protein (Homo sapiens, UniProt Q92793); test: Affinity Phenotypic Cellular interaction (Inhibition of H3K27Ac (DU-145 cells)) EUB0000326a CREBBP
[12] = biological target: C-C chemokine receptor type 1 (Homo sapiens, UniProt P32246); test: Affinity Phenotypic Cellular interaction (Functional cellular assay (measuring calcium flux in response to MIP-1a in CCR1-transfected cells)) EUB0000343a CCR1; type: cell-based; set-up: mode of action Negative control for BI-639667, recommended concentration 100 nM
[13] = biological target: Phosphatidylinositol 3-kinase catalytic subunit type 3 (Homo sapiens, UniProt Q8NEB9); test: Affinity Phenotypic Cellular interaction (Inhibition of PtdIns(3)P levels (at endosomes probed by suppression of endosomal localization of GFP–2×FYVEHrs; U2OS cells)) EUB0000631a PIK3C3; type: functional; set-up: mode of action Inhibitor, recommended concentration 1 uM
Activin receptor type-1B = Activin receptor type-1B (Homo sapiens, UniProt P36896); test: Affinity Phenotypic Cellular interaction (Western blot (inhibition of SMAD2/3 phosphorylation)) EUB0000312b ACVR1B; set-up: mode of action Inhibitor, recommended concentration 1 uM
Integrin alpha-L [14] = biological target: T2, Integrin alpha-L; type: functional, cell-based; set-up: mode of action Inhibitor, recommended concentration 100 nM
[15] = biological target: T1, Serine/threonine-protein kinase PLK1; test: Affinity Phenotypic Cellular interaction (Immunoblot activity assay (using LAP-Mps1 WT in U2OS cells)) EUB0000608a PLK1; type: cell-based; set-up: mode of action Inhibitor, recommended concentration 1 uM
[16] = biological target: Histone-lysine N-methyltransferase KMT5C (Homo sapiens, UniProt Q86Y97); test: Affinity Phenotypic Cellular interaction (Western Blot (decrease in di-methylation of H4K20me in U20S cells)) EUB0000193b SUV420H2; type: cell-based; set-up: mode of action Inhibitor, recommended concentration 1 uM
[17] = biological target: Histone-lysine N-methyltransferase KMT5B (Homo sapiens, UniProt Q4FZB7); test: Affinity Phenotypic Cellular interaction (Western Blot (decrease in di-methylation of H4K20me in U20S cells)) EUB0000193b SUV420H1; type: cell-based; set-up: mode of action Inhibitor, recommended concentration 1 uM
[18] = biological target: Dual specificity protein kinase CLK4 (Homo sapiens, UniProt Q9HAZ1); test: Affinity Phenotypic Cellular interaction (Changed alternative splicing pattern determined by mRNAseq) EUB0000321b CLK4; type: functional; set-up: mode of action Inhibitor, recommended concentration 100 nM
[19] = biological target: Dual specificity protein kinase CLK3 (Homo sapiens, UniProt P49761); test: Affinity Phenotypic Cellular interaction (Changed alternative splicing pattern determined by mRNAseq) EUB0000321b CLK3; type: functional; set-up: mode of action Inhibitor, recommended concentration 100 nM
[20] = biological target: Dual specificity protein kinase CLK1 (Homo sapiens, UniProt P49759); test: Affinity Phenotypic Cellular interaction (Changed alternative splicing pattern determined by mRNAseq) EUB0000321b CLK1; type: functional; set-up: mode of action Inhibitor, recommended concentration 100 nM

T2 sequence (P20701 whole entry): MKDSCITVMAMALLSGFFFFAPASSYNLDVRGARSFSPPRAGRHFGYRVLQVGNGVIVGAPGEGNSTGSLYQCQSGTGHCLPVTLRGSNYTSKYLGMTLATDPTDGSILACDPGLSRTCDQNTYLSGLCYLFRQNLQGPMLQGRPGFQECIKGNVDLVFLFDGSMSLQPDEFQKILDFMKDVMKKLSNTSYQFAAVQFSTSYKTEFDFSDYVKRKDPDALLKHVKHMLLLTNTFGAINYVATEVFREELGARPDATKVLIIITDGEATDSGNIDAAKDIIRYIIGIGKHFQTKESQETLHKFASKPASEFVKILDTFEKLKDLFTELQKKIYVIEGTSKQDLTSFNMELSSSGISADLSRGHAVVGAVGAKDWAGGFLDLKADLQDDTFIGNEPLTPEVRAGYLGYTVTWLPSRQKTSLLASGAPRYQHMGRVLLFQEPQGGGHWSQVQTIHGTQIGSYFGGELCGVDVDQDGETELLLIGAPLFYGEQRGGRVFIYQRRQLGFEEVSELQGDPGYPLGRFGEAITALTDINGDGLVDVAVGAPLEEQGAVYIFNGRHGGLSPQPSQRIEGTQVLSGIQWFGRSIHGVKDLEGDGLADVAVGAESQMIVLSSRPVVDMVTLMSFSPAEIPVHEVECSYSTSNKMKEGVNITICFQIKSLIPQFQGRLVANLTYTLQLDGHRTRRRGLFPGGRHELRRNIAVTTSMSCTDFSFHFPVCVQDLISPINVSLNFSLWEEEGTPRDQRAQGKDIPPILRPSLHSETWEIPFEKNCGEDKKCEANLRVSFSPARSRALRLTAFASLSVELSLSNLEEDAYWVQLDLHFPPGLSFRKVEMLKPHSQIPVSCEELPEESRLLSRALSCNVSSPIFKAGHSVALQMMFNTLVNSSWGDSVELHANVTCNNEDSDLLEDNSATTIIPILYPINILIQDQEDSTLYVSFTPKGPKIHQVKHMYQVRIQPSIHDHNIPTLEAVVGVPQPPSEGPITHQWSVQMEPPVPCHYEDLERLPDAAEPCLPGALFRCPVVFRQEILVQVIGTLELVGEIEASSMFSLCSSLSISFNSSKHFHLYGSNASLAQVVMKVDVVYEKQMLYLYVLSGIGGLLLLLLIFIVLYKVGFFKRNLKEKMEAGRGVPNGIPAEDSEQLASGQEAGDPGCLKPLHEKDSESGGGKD
T1 sequence (P53350 whole entry): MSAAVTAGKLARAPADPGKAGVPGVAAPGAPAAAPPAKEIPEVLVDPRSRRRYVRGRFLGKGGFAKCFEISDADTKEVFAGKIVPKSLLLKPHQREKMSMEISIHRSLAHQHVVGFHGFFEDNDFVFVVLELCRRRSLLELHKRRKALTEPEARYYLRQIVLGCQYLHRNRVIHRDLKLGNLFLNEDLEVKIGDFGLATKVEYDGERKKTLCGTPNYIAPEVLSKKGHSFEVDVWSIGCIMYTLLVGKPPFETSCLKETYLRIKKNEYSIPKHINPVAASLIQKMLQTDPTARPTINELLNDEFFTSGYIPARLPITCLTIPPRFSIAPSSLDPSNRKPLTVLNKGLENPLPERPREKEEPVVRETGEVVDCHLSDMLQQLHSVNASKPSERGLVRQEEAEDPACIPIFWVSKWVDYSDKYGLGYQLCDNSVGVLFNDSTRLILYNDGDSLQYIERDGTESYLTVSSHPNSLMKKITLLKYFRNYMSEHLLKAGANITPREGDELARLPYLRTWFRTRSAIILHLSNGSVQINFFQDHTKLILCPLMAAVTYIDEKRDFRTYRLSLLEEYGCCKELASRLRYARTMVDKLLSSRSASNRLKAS
Chain of Histone acetyltransferase p300 (Q09472 whole entry): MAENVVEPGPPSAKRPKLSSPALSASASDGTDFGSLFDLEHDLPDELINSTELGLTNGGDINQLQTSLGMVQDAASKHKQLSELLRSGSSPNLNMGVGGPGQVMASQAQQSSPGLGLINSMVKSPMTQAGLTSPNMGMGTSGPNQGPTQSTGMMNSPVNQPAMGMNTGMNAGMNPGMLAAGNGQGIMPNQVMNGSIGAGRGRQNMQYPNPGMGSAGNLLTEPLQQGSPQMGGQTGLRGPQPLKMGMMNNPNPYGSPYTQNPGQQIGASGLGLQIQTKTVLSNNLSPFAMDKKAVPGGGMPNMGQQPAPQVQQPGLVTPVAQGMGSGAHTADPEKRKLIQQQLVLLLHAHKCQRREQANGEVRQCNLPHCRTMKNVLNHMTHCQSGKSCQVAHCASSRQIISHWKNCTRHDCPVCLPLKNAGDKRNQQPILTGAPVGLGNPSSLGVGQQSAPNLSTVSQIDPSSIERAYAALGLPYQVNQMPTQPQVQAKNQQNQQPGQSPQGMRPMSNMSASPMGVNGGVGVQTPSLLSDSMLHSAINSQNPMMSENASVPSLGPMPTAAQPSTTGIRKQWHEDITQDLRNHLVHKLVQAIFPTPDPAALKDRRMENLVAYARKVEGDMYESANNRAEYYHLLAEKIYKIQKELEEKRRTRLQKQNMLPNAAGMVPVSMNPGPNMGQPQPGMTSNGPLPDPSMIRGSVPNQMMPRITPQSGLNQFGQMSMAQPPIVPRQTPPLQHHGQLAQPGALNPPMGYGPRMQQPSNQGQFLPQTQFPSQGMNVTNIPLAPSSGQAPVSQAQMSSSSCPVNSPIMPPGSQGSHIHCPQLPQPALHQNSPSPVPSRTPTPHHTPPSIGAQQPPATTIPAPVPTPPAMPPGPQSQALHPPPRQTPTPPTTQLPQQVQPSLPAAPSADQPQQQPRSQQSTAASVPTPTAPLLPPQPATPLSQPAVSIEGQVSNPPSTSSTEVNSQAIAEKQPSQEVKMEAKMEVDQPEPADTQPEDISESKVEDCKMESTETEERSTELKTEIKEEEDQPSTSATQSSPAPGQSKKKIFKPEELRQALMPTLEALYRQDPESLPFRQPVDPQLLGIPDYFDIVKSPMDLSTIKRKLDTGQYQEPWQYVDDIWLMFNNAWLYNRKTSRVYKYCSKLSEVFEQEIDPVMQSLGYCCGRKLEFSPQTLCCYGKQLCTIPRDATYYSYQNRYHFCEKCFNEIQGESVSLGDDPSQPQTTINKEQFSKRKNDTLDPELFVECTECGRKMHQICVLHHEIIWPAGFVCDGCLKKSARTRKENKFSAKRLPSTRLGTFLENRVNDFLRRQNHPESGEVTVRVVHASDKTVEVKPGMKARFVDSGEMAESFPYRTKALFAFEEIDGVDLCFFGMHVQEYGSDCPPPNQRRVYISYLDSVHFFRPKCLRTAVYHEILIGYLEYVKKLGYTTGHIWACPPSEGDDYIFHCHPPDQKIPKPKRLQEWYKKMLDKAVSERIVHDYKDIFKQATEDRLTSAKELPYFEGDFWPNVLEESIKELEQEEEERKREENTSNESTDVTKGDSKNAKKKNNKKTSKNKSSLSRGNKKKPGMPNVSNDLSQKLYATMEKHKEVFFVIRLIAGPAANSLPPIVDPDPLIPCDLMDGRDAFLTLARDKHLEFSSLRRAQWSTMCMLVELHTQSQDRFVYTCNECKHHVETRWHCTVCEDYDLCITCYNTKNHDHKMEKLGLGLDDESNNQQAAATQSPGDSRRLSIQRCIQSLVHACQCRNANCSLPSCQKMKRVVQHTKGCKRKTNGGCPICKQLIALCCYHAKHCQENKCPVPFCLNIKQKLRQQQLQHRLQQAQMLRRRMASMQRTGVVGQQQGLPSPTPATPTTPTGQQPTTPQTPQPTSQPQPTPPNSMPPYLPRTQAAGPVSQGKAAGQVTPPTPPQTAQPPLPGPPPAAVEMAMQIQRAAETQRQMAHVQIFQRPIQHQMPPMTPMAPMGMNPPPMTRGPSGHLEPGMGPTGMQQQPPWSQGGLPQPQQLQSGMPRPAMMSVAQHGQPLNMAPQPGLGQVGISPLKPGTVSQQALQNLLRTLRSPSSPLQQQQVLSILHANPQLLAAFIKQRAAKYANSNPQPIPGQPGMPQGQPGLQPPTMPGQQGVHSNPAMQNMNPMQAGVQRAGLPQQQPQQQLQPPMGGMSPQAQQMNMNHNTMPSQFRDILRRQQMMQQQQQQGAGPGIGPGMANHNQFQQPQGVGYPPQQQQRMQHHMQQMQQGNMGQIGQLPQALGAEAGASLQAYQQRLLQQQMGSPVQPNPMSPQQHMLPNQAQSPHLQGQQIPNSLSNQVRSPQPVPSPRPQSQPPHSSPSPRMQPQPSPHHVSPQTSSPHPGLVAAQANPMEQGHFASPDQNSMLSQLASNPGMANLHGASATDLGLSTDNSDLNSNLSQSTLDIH
Chain of Histone-lysine N-methyltransferase KMT5B (Q4FZB7 whole entry): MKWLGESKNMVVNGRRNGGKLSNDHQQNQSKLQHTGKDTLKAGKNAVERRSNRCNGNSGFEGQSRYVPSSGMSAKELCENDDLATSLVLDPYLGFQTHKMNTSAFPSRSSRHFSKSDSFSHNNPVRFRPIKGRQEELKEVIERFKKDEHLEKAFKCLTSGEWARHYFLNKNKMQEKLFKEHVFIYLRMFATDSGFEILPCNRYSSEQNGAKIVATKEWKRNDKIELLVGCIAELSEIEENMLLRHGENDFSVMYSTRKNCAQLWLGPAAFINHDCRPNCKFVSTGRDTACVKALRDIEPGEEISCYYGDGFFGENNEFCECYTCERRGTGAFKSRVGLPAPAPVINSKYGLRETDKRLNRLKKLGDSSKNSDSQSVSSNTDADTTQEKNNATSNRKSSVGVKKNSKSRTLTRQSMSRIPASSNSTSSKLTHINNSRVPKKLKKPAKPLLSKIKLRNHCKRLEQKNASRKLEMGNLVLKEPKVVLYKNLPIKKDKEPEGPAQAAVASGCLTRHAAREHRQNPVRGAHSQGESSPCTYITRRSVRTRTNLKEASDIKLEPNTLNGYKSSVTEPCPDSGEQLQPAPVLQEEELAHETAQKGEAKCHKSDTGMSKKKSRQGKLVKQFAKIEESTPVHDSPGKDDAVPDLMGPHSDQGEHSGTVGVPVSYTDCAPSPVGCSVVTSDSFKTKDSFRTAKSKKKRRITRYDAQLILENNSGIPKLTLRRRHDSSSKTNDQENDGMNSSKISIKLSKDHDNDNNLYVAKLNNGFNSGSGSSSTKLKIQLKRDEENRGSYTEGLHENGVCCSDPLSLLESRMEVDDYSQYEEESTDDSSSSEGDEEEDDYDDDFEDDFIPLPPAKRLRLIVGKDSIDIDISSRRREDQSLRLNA

SMILES: C[C@@H](Oc1cc(-n2cnc3ccc(CN4CCN(C)CC4)cc32)sc1C(N)=O)c1ccccc1C(F)(F)F
- GIC50 [1]: 6.4 nM

SMILES: Cc1ccc(-c2ccc3c(ccc4sc5c(c43)NC[C@@H](C)NC5=O)n2)cn1
- IC50 [2]: 159 nM
- IC50 [3]: 159 nM
- IC50 [4]: 159 nM

SMILES: CCCOc1ccn2c(C(C)=O)cc(-c3cccc(OC)c3)c2c1
- IC50 [5]: > 100000 nM

SMILES: C[C@H](c1ccnc(Nc2nc3ccc(-c4cc(N(C)C)ncn4)cc3[nH]2)c1)N1CCN(C(=O)CC(F)(F)F)CC1 [BAY-985]
- IC50 [6]: 74 nM
- IC50 [7]: 74 nM

SMILES: CC1=C(C#N)C(c2ccc3[nH]nc(C)c3c2)C(C#N)=C(C)N1
- IC90 [8]: 56 nM

SMILES: CNc1cc(Oc2cc(C(=O)Nc3cc(N4CCN(C)CC4)cc(C(F)(F)F)c3)ccc2C)ncn1
- EC50 [9]: 500 nM

SMILES: C[C@@]1(Cc2ccc(C#N)cc2)C(=O)N(c2cc(Cl)cc(Cl)c2)c2ncc(C(=O)NC3(c4nc(C5CCC5)no4)CC3)n21 [BI 9446]
- IC50 (Integrin alpha-L [10]): > 1000 nM

SMILES: CNC(=O)Nc1ccc2c(c1)[C@@]1(CC2)OC(=O)N(CC(=O)N(Cc2ccc(F)cc2)[C@@H](C)C(F)(F)F)C1=O [A-486]
- IC50 [11]: > 10000 nM
- IC50 (CREB-binding protein): > 10000 nM

SMILES: CS(=O)(=O)NCC[C@H](NC(=O)c1cncc2c1cnn2-c1ccc(F)cc1)c1ccnc(S(C)(=O)=O)c1 [BI 9307]
- IC50 [12]: > 3000 nM

SMILES: CC(C)(O)CNc1ncc(-c2ccnc(Nc3ccnc(Cl)c3)n2)c(CC2CC2)n1
- IC50 [13]: < 100 nM

SMILES: Cc1cnc(-c2cc(Cl)ccc2F)cc1-n1c(=O)n(CC(N)=O)c2cnccc21 [TP-008]
- EC50 (Activin receptor type-1B): > 1000 nM

SMILES: C[C@H](NC(=O)c1cnc2n1[C@](C)(Cc1ccc(C#N)cc1)C(=O)N2c1cc(Cl)c(F)c(Cl)c1)C(=O)NC1(c2ccccn2)CC1 [BI 1950]
- IC50 (Integrin alpha-L [14]): 3 nM

SMILES: CCOc1cc(N2CCC(O)CC2)ccc1Nc1ncc2c(n1)N(C1CCCC1)CCC(=O)N2C
- IC50 [15]: 160 nM

SMILES: Clc1cc2c(NC3CCCC3)nnc(-c3ccncc3)c2cc1Cl
- EC50 [16]: 262 nM
- EC50 [17]: 262 nM

SMILES: CN1CCN(C(=O)C(C)(C)c2ccc(C(=O)Nc3cn4cc(-c5ccncc5)ccc4n3)cc2)CC1 [T3-CLK]
- EC50 [18]: < 500 nM
- EC50 [19]: < 500 nM
- EC50 [20]: < 500 nM
